Test results published in ChEMBL document CHEMBL4177660, “Discovery of furan and dihydrofuran-fused tricyclic benzo[d]imidazole derivatives as potent and orally efficacious microsomal prostaglandin E synthase-1 (mPGES-1) inhibitors: Part-1” (Bioorg Med Chem Lett, 2017).
Values after ≈ are worked out from the molar mass of the structure shown.

Legend:
[1] = Intrinsic solubility of the compound; type: physicochemical
[2] = Solubility of the compound in FaSSIF at pH 6; type: physicochemical
[3] = Solubility of the compound in acetate buffer at pH 4.5; type: physicochemical
[4] = Solubility of the compound in 0.1N HCl; type: physicochemical
[5] = Solubility of the compound in DMSO; type: physicochemical
[6] = Solubility of the compound in FeSSIF at pH 5.2; type: physicochemical
[7] = test system: Cynomolgus monkey; assay: Apparent volume of distribution in cynomolgus monkey at 10 mg/kg, po; type: ADME, organism-based, Macaca fascicularis; settings: in vivo
[8] = Tmax in Beagle dog at 10 mg/kg, po; type: ADME, organism-based, Canis lupus familiaris; settings: in vivo
[9] = AUC (0 to 24 hrs) in Beagle dog at 10 mg/kg, po; type: ADME, organism-based, Canis lupus familiaris; set-up: time < 24 hr, dose 10 mg/kg, route oral; settings: in vivo
[10] = Tmax in Dunkin-Hartley guinea pig at 100 mg/kg, po; type: ADME, organism-based, Cavia porcellus; settings: in vivo
[11] = Cmax in cynomolgus monkey at 10 mg/kg, po; type: ADME, organism-based, Macaca fascicularis; set-up: dose 10 mg/kg, route oral; settings: in vivo
[12] = test system: Rattus norvegicus; assay: Cmax in Sprague-Dawley rat at 10 mg/kg, po; type: ADME, organism-based; set-up: dose 10 mg/kg, route oral; settings: in vivo
[13] = Drug level in Sprague-Dawley rat brain; type: ADME, tissue-based; settings: in vivo
[14] = Tmax in Sprague-Dawley rat at 30 mg/kg, po; type: ADME, organism-based; settings: in vivo
[15] = Plasma concentration in Dunkin-Hartley guinea pig model of LPS-induced thermal hyperalgesia at 10 mg/kg, po pretreated for 4 hrs followed by LPS challenge measured at […] post dose; type: ADME, organism-based, Cavia porcellus
[16] = test system: Rattus norvegicus; assay: Tmax in Sprague-Dawley rat at 10 mg/kg, po; type: ADME, organism-based; settings: in vivo
[17] = AUC (0 to 24 hrs) in cynomolgus monkey at 10 mg/kg, po; type: ADME, organism-based, Macaca fascicularis; set-up: dose 10 mg/kg, time < 24 hr, route oral; settings: in vivo
[18] = Plasma concentration in Dunkin-Hartley guinea pig model of LPS-induced thermal hyperalgesia at 3 mg/kg, po pretreated for 4 hrs followed by LPS challenge measured at […] post dose; type: ADME, organism-based, Cavia porcellus
[19] = Drug level in Sprague-Dawley rat plasma; type: ADME, cell-free
[20] = AUC (0 to 24 hrs) in Dunkin-Hartley guinea pig at 30 mg/kg, po; type: ADME, organism-based, Cavia porcellus; set-up: dose 30 mg/kg, time < 24 hr, route oral; settings: in vivo
[21] = Cmax in Beagle dog at 10 mg/kg, po; type: ADME, organism-based, Canis lupus familiaris; set-up: dose 10 mg/kg, route oral; settings: in vivo
[22] = Ratio of drug level in Sprague-Dawley rat brain to plasma; type: ADME, cell-free; settings: brain and plasma, read-out: BPR
[23] = test system: Rattus norvegicus; assay: Apparent volume of distribution in Sprague-Dawley rat at 1 mg/kg, iv; settings: in vivo
[24] = Cmax in Sprague-Dawley rat at 30 mg/kg, po; type: ADME, organism-based; set-up: dose 30 mg/kg, route oral; settings: in vivo
[25] = Cmax in Dunkin-Hartley guinea pig at 30 mg/kg, po; type: ADME, organism-based, Cavia porcellus; set-up: dose 30 mg/kg, route oral; settings: in vivo
[26] = Plasma concentration in Dunkin-Hartley guinea pig model of LPS-induced thermal hyperalgesia at 30 mg/kg, po pretreated for 4 hrs followed by LPS challenge measured at […] post dose; type: ADME, organism-based, Cavia porcellus
[27] = AUC (0 to 24 hrs) in Sprague-Dawley rat at 30 mg/kg, po; type: ADME, organism-based; set-up: time < 24 hr, dose 30 mg/kg, route oral; settings: in vivo
[28] = Tmax in Dunkin-Hartley guinea pig at 30 mg/kg, po; type: ADME, organism-based, Cavia porcellus; settings: in vivo
[29] = AUC (0 to 24 hrs) in Dunkin-Hartley guinea pig at 100 mg/kg, po; type: ADME, organism-based, Cavia porcellus; set-up: time < 24 hr, dose 100 mg/kg, route oral; settings: in vivo
[30] = Oral bioavailability in Sprague-Dawley rat at 30 mg/kg; type: ADME, organism-based; settings: in vivo
[31] = Cmax in Dunkin-Hartley guinea pig at 100 mg/kg, po; type: ADME, organism-based, Cavia porcellus; set-up: dose 100 mg/kg, route oral; settings: in vivo
[32] = Oral bioavailability in cynomolgus monkey at 10 mg/kg; type: ADME, organism-based, Macaca fascicularis; settings: in vivo
[33] = AUC (0 to 24 hrs) in Dunkin-Hartley guinea pig at 10 mg/kg, po; type: ADME, organism-based, Cavia porcellus; set-up: time < 24 hr, dose 10 mg/kg, route oral; settings: in vivo
[34] = Oral bioavailability in Sprague-Dawley rat at 10 mg/kg; type: ADME, organism-based; settings: in vivo
[35] = Permeability of the compound by PAMPA; type: ADME; settings: read-out: permeability
[36] = Cmax in Sprague-Dawley rat at 100 mg/kg, po; type: ADME, organism-based; set-up: dose 100 mg/kg, route oral; settings: in vivo
[37] = Tmax in Dunkin-Hartley guinea pig at 10 mg/kg, po; type: ADME, organism-based, Cavia porcellus; settings: in vivo
[38] = Tmax in Sprague-Dawley rat at 100 mg/kg, po; type: ADME, organism-based; settings: in vivo
[39] = test system: Rattus norvegicus; assay: AUC (0 to 24 hrs) in Sprague-Dawley rat at 10 mg/kg, po; type: ADME, organism-based; set-up: time < 24 hr, dose 10 mg/kg, route oral; settings: in vivo
[40] = Tmax in cynomolgus monkey at 10 mg/kg, po; type: ADME, organism-based, Macaca fascicularis; settings: in vivo
[41] = Cmax in Dunkin-Hartley guinea pig at 10 mg/kg, po; type: ADME, organism-based, Cavia porcellus; set-up: dose 10 mg/kg, route oral; settings: in vivo
[42] = AUC (0 to 24 hrs) in Sprague-Dawley rat at 100 mg/kg, po; type: ADME, organism-based; set-up: dose 100 mg/kg, time < 24 hr, route oral; settings: in vivo

With CC1(C)Cc2c(c(C(=O)NCC3CCCCC3)cc3nc(Nc4c(Cl)cncc4Cl)[nH]c23)O1 the solubility [1] was “Soluble”.
For Cc1ccc(NC(=O)c2cc3nc(Nc4c(Cl)cccc4Cl)[nH]c3c3c2OC(C)(C)C3)c(C)n1, the solubility [1] was “Soluble”.
With CC1(C)Cc2c(c(C(=O)Nc3ccc(C4CC4)cc3)cc3nc(Nc4c(F)cccc4Cl)[nH]c23)O1 the solubility [1] was “Soluble”.
In the case of Cc1cc2c(o1)c(C(=O)Nc1ccc(C(F)(F)F)cc1)cc1nc(Nc3c(Cl)cccc3Cl)[nH]c12, the solubility [1] is reported as “Insoluble”.
With CC1(C)Cc2c(c(C(=O)Nc3cccc(C4CC4)c3)cc3nc(Nc4c(F)cccc4Cl)[nH]c23)O1 the solubility [1] was “Soluble”.
In the case of CC1(C)Cc2c(c(C(=O)NCC3CC3)cc3nc(Nc4c(Cl)cccc4Cl)[nH]c23)O1, the solubility [1] is reported as “Soluble”.
In the case of CC1(C)Cc2c(c(C(=O)NCC3CC3)cc3nc(Nc4c(Cl)cncc4Cl)[nH]c23)O1, the solubility [1] is reported as “Soluble”.
With CC1(C)Cc2c(c(C(=O)Nc3ccc(C(F)(F)F)cc3)cc3nc(Nc4c(Cl)cccc4Cl)[nH]c23)O1 the solubility [2] was 0.3 µg/mL (≈ 0.56 µM), the solubility [1] was “Soluble” and the solubility [3] was “Insoluble”. For the same molecule, the solubility [4] was 0.1 µg/mL (≈ 0.187 µM), the solubility [5] was 20 mg/mL (≈ 37400 µM) and the solubility [6] was 0.6 µg/mL (≈ 1.12 µM).
For CC1(C)Cc2c(c(C(=O)NCC(F)(F)C(F)(F)F)cc3nc(Nc4c(Cl)cccc4Cl)[nH]c23)O1, the solubility [1] was “Soluble”.
For CC1(C)Cc2c(c(C(=O)Nc3ccc(C(F)(F)F)cc3F)cc3nc(Nc4c(Cl)cncc4Cl)[nH]c23)O1, the solubility [1] was “Soluble”.
With CC1(C)Cc2c(c(C(=O)NC3CCCCC3)cc3nc(Nc4c(Cl)cncc4Cl)[nH]c23)O1 the solubility [1] was “Soluble”.
CC1(C)Cc2c(c(C(=O)Nc3ccc(C(F)(F)F)cc3)cc3nc(Nc4c(F)cccc4Cl)[nH]c23)O1 gave a Vz [7] of 1.67 L/kg, a Tmax [8] of 12 h and an AUC(0-t) at 24 h [9] of 22000 ng·h/mL. The Tmax [10] was 2 h, the solubility [2] was 0.9 µg/mL (≈ 1.73 µM) and the Cmax [11] was 908 ng/mL. For the same molecule, the Cmax [12] was 546 ng/mL, the Drug uptake [13] was 58.9 ng/mL and the Tmax [14] was 2 h. It also gave a concentration at […] [15] of 116 ng/mL, a Tmax [16] of 2 h and an AUC(0-t) at 24 h [17] of 16700 ng·h/mL. For the same molecule, the concentration at […] [18] was 43 ng/mL, the Cp [19] was 268.9 ng/mL and the AUC(0-t) at 24 h [20] was 11600 ng·h/mL. It also gave a Cmax [21] of 1090 ng/mL, a Kp [22] of 0.22 and a Vz [23] of 3.59 L/kg. The Cmax [24] was 2530 ng/mL, the solubility [1] was “Soluble” and the solubility [3] was “Insoluble”. For the same molecule, the Cmax [25] was 742 ng/mL, the solubility [4] was 0.2 µg/mL (≈ 0.385 µM) and the solubility [5] was 25 mg/mL (≈ 48200 µM). For the same molecule, the concentration at […] [26] was 371 nM, the AUC(0-t) at 24 h [27] was 32400 ng·h/mL and the Tmax [28] was 4 h. For the same molecule, the AUC(0-t) at 24 h [29] was 11700 ng·h/mL, the bioavailability [30] was 100% and the Cmax [31] was 736 ng/mL. The bioavailability [32] was 78%, the AUC(0-t) at 24 h [33] was 5080 ng·h/mL and the bioavailability [34] was 100%. The Papp [35] was 0.13 ×10⁻⁶ cm/s, the Cmax [36] was 5550 ng/mL and the Tmax [37] was 4 h. The Tmax [38] was 8 h, the AUC [39] was 6505 ng·h/mL and the Tmax [40] was 6 h. The solubility [6] was 0.6 µg/mL (≈ 1.16 µM), the Cmax [41] was 426 ng/mL and the AUC(0-t) at 24 h [42] was 108 µg·h/mL.
With Cc1cc2c(o1)c(C(=O)Nc1ccc(C(F)(F)F)cc1)cc1nc(Nc3c(Cl)cncc3Cl)[nH]c12 the solubility [1] was “Insoluble”.
In the case of CC1(C)Cc2c(c(C(=O)Nc3ccc(Cl)cn3)cc3nc(Nc4c(F)cccc4Cl)[nH]c23)O1, the solubility [1] is reported as “Soluble”.
For CC1(C)Cc2c(c(C(=O)Nc3ccc(C(F)(F)F)cc3)cc3nc(Nc4c(Cl)cncc4Cl)[nH]c23)O1, the solubility [1] was “Soluble”.
In the case of CC1(C)Cc2c(c(C(=O)Nc3ccc(F)cc3)cc3nc(Nc4c(Cl)cccc4Cl)[nH]c23)O1, the solubility [1] is reported as “Soluble”.
In the case of CC1(C)Cc2c(c(C(=O)Nc3ccc(C(F)(F)F)nc3)cc3nc(Nc4c(Cl)cccc4Cl)[nH]c23)O1, the solubility [1] is reported as “Soluble”.
With Cc1cc2c(o1)c(C(=O)Nc1cccc(C(F)(F)F)c1)cc1nc(Nc3c(Cl)cccc3Cl)[nH]c12 the solubility [1] was “Insoluble”.
For CC1(C)Cc2c(c(C(=O)NCC(F)(F)F)cc3nc(Nc4c(Cl)cccc4Cl)[nH]c23)O1, the solubility [1] was “Soluble”.
With CC1(C)Cc2c(c(C(=O)NC3CCC(F)(F)CC3)cc3nc(Nc4c(Cl)cccc4Cl)[nH]c23)O1 the solubility [1] was “Soluble”.
In the case of CC1(C)Cc2c(c(C(=O)NCC3CCCC3)cc3nc(Nc4c(Cl)cccc4Cl)[nH]c23)O1, the solubility [1] is reported as “Soluble”.
For CC1(C)Cc2c(c(C(=O)Nc3ccc(F)cc3)cc3nc(Nc4c(F)cccc4Cl)[nH]c23)O1, the solubility [1] was “Soluble”.
With CC1(C)Cc2c(c(C(=O)Nc3ccc(OC(F)F)nc3)cc3nc(Nc4c(F)cccc4Cl)[nH]c23)O1 the solubility [1] was “Soluble”.
In the case of CC1(C)Cc2c(c(C(=O)Nc3ccccc3)cc3nc(Nc4c(Cl)cccc4Cl)[nH]c23)O1, the solubility [1] is reported as “Soluble”.
For CC1(C)Cc2c(c(C(=O)Nc3ccc(F)c(C(F)(F)F)c3)cc3nc(Nc4c(Cl)cncc4Cl)[nH]c23)O1, the solubility [1] was “Soluble”.
For COc1ccc(NC(=O)c2cc3nc(Nc4c(Cl)cccc4Cl)[nH]c3c3c2OC(C)(C)C3)cn1, the solubility [1] was “Soluble”.
